Like-named read-outs stand apart in the source and are kept apart here.

Here are results for three compounds from publication PMC5327911 (Clinical Pharmacology : Advances and Applications, 2017).

For series [1] the following is noted: cited from earlier work.
The format of series [2] is in vivo, human.
Series [3] concerns CYP3A4 or other CYP isoenzymes. The note with it: cited from earlier work.
The nature of series [4]: Safety. It counts as in vivo, human.
The conditions of series [5]: cited from earlier work. This is another data set of the same source.
A short description of series [6]: Safety. It is filed as in vivo, human. This is another data set of the same source.
Series [7] has as its system CYP system. The note with it: cited from earlier work.
Setting [8] is: apixaban 10 mg + atenolol 100 mg vs apixaban 10 mg.

Usually AUC(0-inf) stands for the area under the concentration-time curve extrapolated to infinity. Lower therefore signals less exposure. One may read the AUC(0-t) as the area under the concentration-time curve up to a stated or last time point. As usually defined, the Cmax is the maximum level reached in the sampled fluid or tissue. Usually half-life stands for how long it takes for the measured level to halve. Low values mean rapid decline, high ones slow decline. `COc1ccc(-n2nc(C(N)=O)c3c2C(=O)N(c2ccc(N4CCCCC4=O)cc2)CC3)cc1` [Apixaban]: the “bound to serum proteins” value in series [1] (apixaban) is recorded as 87%. The protein-bound in series [1] was 87%. Moreover, under setting [8], the “Decrease in apixaban AUC0–t when coadministered with atenolol” value is on record as 15%, the “Decrease in apixaban AUCinf when coadministered with atenolol” value is reported as 15% and the “Decrease in apixaban Cmax when coadministered with atenolol” value amounted to 18%. In addition, the “Pharmacokinetic interaction between apixaban and atenolol” value (apixaban 10 mg, atenolol 100 mg, single doses) is recorded as “no clinically relevant interaction”. Besides, under “apixaban, Treatment C, apixaban 10 mg + atenolol 100 mg, geometric mean (CV %), n=14”, the AUCinf is given as 1878 (33) ng·h/mL. Moreover, where the note is “human, plasma, oral, 10 mg”, the AUC(0-inf) is 2160 ng·h/mL, the AUC(0-t) stood at 2100 ng·h/mL, the Cmax amounted to 216 ng/mL and the Tmax worked out at 3 h. Besides, the half-life (human, plasma, oral, 10 mg) is 13.9 h. Besides, the “Effect of apixaban on the PK of digoxin” value in series [2] (apixaban 20 mg once daily, digoxin 0.25 mg once daily) is “no effect”. In series [3], the “inhibition or induction of CYP3A4 or other CYP isoenzymes” value is given as “does not inhibit or induce”. Also, in series [4] (digoxin 0.25 mg, then digoxin 0.25 mg + apixaban 20 mg once daily), the “Deaths, serious AEs, major bleeding-related AEs” value is given as “No deaths, serious AEs, or major bleeding-related AEs”. The “mean elimination half-life (t1/2)” value in series [5] (apixaban in healthy subjects) is ~ 12 hours. In series [5] (effect of body weight), the “lower apixaban AUCinf in subjects ≥120 kg” value is recorded as 23% and the “lower apixaban Cmax in subjects ≥120 kg” value is on record as 31%. In addition, the “Number of AEs” value in series [6] (apixaban 10 mg alone, none bleeding-related) is on record as “five”. The “Deaths, serious AEs, major bleeding-related AEs” value in series [6] (single doses of apixaban 10 mg, atenolol 100 mg, or both) is “No deaths, serious AEs, or major bleeding-related AEs”.

For the compound `CC(C)NCC(O)COc1ccc(CC(N)=O)cc1` (centres unmarked) [Atenolol, atenolol], the “Tolerability of coadministration with apixaban” value in series [6] (healthy subjects, atenolol 100 mg + apixaban 10 mg) is on record as “generally well tolerated”.

What is called AUC is concentration integrated over time. Regarding `C[C@H]1O[C@@H](O[C@H]2[C@@H](O)C[C@H](O[C@H]3[C@@H](O)C[C@H](O[C@H]4CC[C@@]5(C)[C@H](CC[C@@H]6[C@@H]5C[C@@H](O)[C@]5(C)[C@@H](C7=CC(=O)OC7)CC[C@]65O)C4)O[C@@H]3C)O[C@@H]2C)C[C@H](O)[C@@H]1O` [Digoxin, digoxin], the Tmax in series [2] (digoxin, Treatment B, digoxin 0.25 mg + apixaban 20 mg, day 20, median (min, max)) is reported as 1.00 (1.0, 2.0) h. Further, in series [2] (human, serum, oral, 0.25 mg), the AUC turned out to be 16.8 ng·h/mL and the concentration peaked (Cmax) at 1.68 ng/mL. The “induction or inhibition of the CYP system” value in series [7] is “does not appear to induce or inhibit”. For the same compound, the “Tolerability of coadministration with apixaban” value in series [4] (healthy subjects, digoxin 0.25 mg + apixaban 20 mg) is listed as “generally well tolerated”.
